# Source: patent US20100267561A1, “HERBICIDAL PYRIDAZINONE DERIVATIVES” (priority 2007, published 2010)
# What was measured:
# Experiment in all cases: Test C pre-/postemergence plant response
# Format in all cases: in vivo
# Conditions in all cases: Preemergence
# [1] = tested on: green foxtail (Setaria viridis)
# Description: (§1) Seeds of plant species selected from annual bluegrass (Poa annua), blackgrass (Alopecurus myosuroides), canola (Brassica rapa), downy bromegrass (Bromus tectorum), green foxtail (Setaria viridis), Italian ryegrass (Lolium multiflorum), canarygrass (Phalaris minor), pigweed (Amaranthus retroflexus), spring barley (Hordeum vulgare), spring wheat (Triticum aestivum), wild mustard (Sinapis arvensis), wild oat (Avena fatua), windgrass (Apera spica-venti), winter barley (Hordeum vulgare), and winter wheat (Triticum aestivum) were planted and treated preemergence with test chemicals formulated in a non-phytotoxic solvent mixture which included a surfactant. At the same time, plants selected from these crop and weed species were treated with postemergence applications of some of the test chemicals formulated in the same manner. Plants ranged in height from 2 to 18 cm (1- to 4-leaf stage) for postemergence treatments.
# (§2) Treated plants and controls were maintained in a controlled growth environment for 15 to 25 days after which time all species were compared to controls and visually evaluated. Plant response ratings, summarized in Table C, are based on a scale of 0 to 100 where 0 is no effect and 100 is complete control. A dash (-) response means no test result.
# [2] = tested on: Italian ryegrass (Lolium multiflorum)
# Description: as §1, §2
# [3] = tested on: annual bluegrass (Poa annua)
# Description: as §1, §2
# [4] = tested on: spring wheat (Triticum aestivum)
# Description: as §1, §2
# [5] = tested on: canarygrass (Phalaris minor)
# Description: as §1, §2
# [6] = tested on: wild oat (Avena fatua)
# Description: as §1, §2
# [7] = tested on: wild mustard (Sinapis arvensis)
# Description: as §1, §2
# [8] = tested on: winter wheat (Triticum aestivum)
# Description: as §1, §2
# [9] = tested on: windgrass (Apera spica-venti)
# Description: as §1, §2
# [10] = tested on: spring barley (Hordeum vulgare)
# Description: as §1, §2
# [11] = tested on: pigweed (Amaranthus retroflexus)
# Description: as §1, §2
# [12] = tested on: downy bromegrass (Bromus tectorum)
# Description: as §1, §2
# [13] = tested on: blackgrass (Alopecurus myosuroides)
# Description: as §1, §2
# [14] = tested on: winter barley (Hordeum vulgare)
# Description: as §1, §2
# [15] = 8 g ai/ha, scale 0 to 100 (0 no effect, 100 complete control)
# [16] = 16 g ai/ha, scale 0 to 100 (0 no effect, 100 complete control)
# [17] = 31 g ai/ha, scale 0 to 100 (0 no effect, 100 complete control)
# [18] = 62 g ai/ha, scale 0 to 100, 0 no effect, 100 complete control
structure (smiles),measurement,setting,value
Cc1cc(-c2ccc(Cl)cc2)nn1-c1c(OC(=O)c2cccs2)cnn(C)c1=O [Compound 52],"Plant response rating, Foxtail, Green",[1]; [15],75
same,"Plant response rating, Foxtail, Green",[1]; [16],100
same,"Plant response rating, Foxtail, Green",[1]; [17],100
same,"Plant response rating, Foxtail, Green",[1]; [18],100
same,"Plant response rating, Ryegrass, Italian",[2]; [15],0
same,"Plant response rating, Ryegrass, Italian",[2]; [16],65
same,"Plant response rating, Ryegrass, Italian",[2]; [17],90
same,"Plant response rating, Ryegrass, Italian",[2]; [18],100
same,"Plant response rating, Bluegrass",[3]; [15],0
same,"Plant response rating, Bluegrass",[3]; [16],0
same,"Plant response rating, Bluegrass",[3]; [17],10
same,"Plant response rating, Bluegrass",[3]; [18],10
same,"Plant response rating, Wheat, Spring",[4]; [15],0
same,"Plant response rating, Wheat, Spring",[4]; [16],0
same,"Plant response rating, Wheat, Spring",[4]; [17],65
same,"Plant response rating, Wheat, Spring",[4]; [18],90
same,"Plant response rating, Canarygrass",[5]; [15],0
same,"Plant response rating, Canarygrass",[5]; [16],65
same,"Plant response rating, Canarygrass",[5]; [17],90
same,"Plant response rating, Canarygrass",[5]; [18],95
same,"Plant response rating, Oat, Wild",[6]; [15],0
same,"Plant response rating, Oat, Wild",[6]; [16],40
same,"Plant response rating, Oat, Wild",[6]; [17],60
same,"Plant response rating, Oat, Wild",[6]; [18],60
same,"Plant response rating, Mustard, Wild",[7]; [15],0
same,"Plant response rating, Mustard, Wild",[7]; [16],0
same,"Plant response rating, Mustard, Wild",[7]; [17],0
same,"Plant response rating, Mustard, Wild",[7]; [18],0
same,"Plant response rating, Wheat, Winter",[8]; [15],0
same,"Plant response rating, Wheat, Winter",[8]; [16],0
same,"Plant response rating, Wheat, Winter",[8]; [17],40
same,"Plant response rating, Wheat, Winter",[8]; [18],65
same,"Plant response rating, Windgrass",[9]; [15],0
same,"Plant response rating, Windgrass",[9]; [16],0
same,"Plant response rating, Windgrass",[9]; [17],70
same,"Plant response rating, Windgrass",[9]; [18],70
same,"Plant response rating, Barley, Spring",[10]; [15],0
same,"Plant response rating, Barley, Spring",[10]; [16],0
same,"Plant response rating, Barley, Spring",[10]; [17],40
same,"Plant response rating, Barley, Spring",[10]; [18],60
same,"Plant response rating, Pigweed",[11]; [15],0
same,"Plant response rating, Pigweed",[11]; [16],0
same,"Plant response rating, Pigweed",[11]; [17],0
same,"Plant response rating, Pigweed",[11]; [18],0
same,"Plant response rating, Bromegrass, Downy",[12]; [15],0
same,"Plant response rating, Bromegrass, Downy",[12]; [16],0
same,"Plant response rating, Bromegrass, Downy",[12]; [17],15
same,"Plant response rating, Bromegrass, Downy",[12]; [18],80
same,"Plant response rating, Blackgrass",[13]; [15],40
same,"Plant response rating, Blackgrass",[13]; [16],60
same,"Plant response rating, Blackgrass",[13]; [17],95
same,"Plant response rating, Blackgrass",[13]; [18],95
same,"Plant response rating, Barley, Winter",[14]; [15],0
same,"Plant response rating, Barley, Winter",[14]; [16],0
same,"Plant response rating, Barley, Winter",[14]; [17],0
same,"Plant response rating, Barley, Winter",[14]; [18],50
Cc1cc(-c2ccc(Cl)cc2)nn1-c1c(OS(=O)(=O)c2ccc(Cl)s2)cnn(C)c1=O [Compound 55],"Plant response rating, Foxtail, Green",[1]; [15],20
same,"Plant response rating, Foxtail, Green",[1]; [16],40
same,"Plant response rating, Foxtail, Green",[1]; [17],100
same,"Plant response rating, Foxtail, Green",[1]; [18],100
same,"Plant response rating, Ryegrass, Italian",[2]; [15],0
same,"Plant response rating, Ryegrass, Italian",[2]; [16],0
same,"Plant response rating, Ryegrass, Italian",[2]; [18],90
same,"Plant response rating, Bluegrass",[3]; [15],0
same,"Plant response rating, Bluegrass",[3]; [16],0
same,"Plant response rating, Bluegrass",[3]; [17],0
same,"Plant response rating, Bluegrass",[3]; [18],15
same,"Plant response rating, Wheat, Spring",[4]; [15],0
same,"Plant response rating, Wheat, Spring",[4]; [16],0
same,"Plant response rating, Wheat, Spring",[4]; [17],50
same,"Plant response rating, Wheat, Spring",[4]; [18],60
same,"Plant response rating, Canarygrass",[5]; [15],0
same,"Plant response rating, Canarygrass",[5]; [16],0
same,"Plant response rating, Canarygrass",[5]; [17],20
same,"Plant response rating, Canarygrass",[5]; [18],90
same,"Plant response rating, Oat, Wild",[6]; [15],0
same,"Plant response rating, Oat, Wild",[6]; [16],0
same,"Plant response rating, Oat, Wild",[6]; [17],0
same,"Plant response rating, Oat, Wild",[6]; [18],65
same,"Plant response rating, Mustard, Wild",[7]; [15],0
same,"Plant response rating, Mustard, Wild",[7]; [16],0
same,"Plant response rating, Mustard, Wild",[7]; [17],0
same,"Plant response rating, Mustard, Wild",[7]; [18],0
same,"Plant response rating, Wheat, Winter",[8]; [15],0
same,"Plant response rating, Wheat, Winter",[8]; [16],0
same,"Plant response rating, Wheat, Winter",[8]; [17],0
same,"Plant response rating, Wheat, Winter",[8]; [18],60
same,"Plant response rating, Windgrass",[9]; [15],0
same,"Plant response rating, Windgrass",[9]; [16],0
same,"Plant response rating, Windgrass",[9]; [17],0
same,"Plant response rating, Windgrass",[9]; [18],60
same,"Plant response rating, Barley, Spring",[10]; [15],0
same,"Plant response rating, Barley, Spring",[10]; [16],0
same,"Plant response rating, Barley, Spring",[10]; [17],0
same,"Plant response rating, Barley, Spring",[10]; [18],70
same,"Plant response rating, Pigweed",[11]; [15],0
same,"Plant response rating, Pigweed",[11]; [16],0
same,"Plant response rating, Pigweed",[11]; [17],0
same,"Plant response rating, Bromegrass, Downy",[12]; [15],0
same,"Plant response rating, Bromegrass, Downy",[12]; [16],0
same,"Plant response rating, Bromegrass, Downy",[12]; [17],0
same,"Plant response rating, Bromegrass, Downy",[12]; [18],40
same,"Plant response rating, Blackgrass",[13]; [16],40
same,"Plant response rating, Blackgrass",[13]; [17],80
same,"Plant response rating, Blackgrass",[13]; [18],95
same,"Plant response rating, Barley, Winter",[14]; [15],0
same,"Plant response rating, Barley, Winter",[14]; [16],0
same,"Plant response rating, Barley, Winter",[14]; [17],0
same,"Plant response rating, Barley, Winter",[14]; [18],60
